From ChEMBL document CHEMBL1153646, “Peptidomimetic inhibitors of p21ras farnesyltransferase: Hydrophobic functionalization leads to disruption of p21ras membrane association in whole cells” (Bioorg Med Chem Lett, 1994)
Active and inactive are the calls of the source. No cut-off for these calls is given here.

How the values were obtained:
[1] = target: Protein farnesyltransferase (Mus musculus) (UniProt Q61239+Q8K2I1); assay: In vivo inhibition of p21ras-farnesyl transferase in NIH3T3 cells (No inhibition); type: functional
[2] = target: Protein farnesyltransferase (Homo sapiens, UniProt P49354+P49356); assay: In vitro inhibition of [3H]FPP incorporation into recombinant P21ras of NIH3T3 cells by farnesyl transferase; type: cell-based

Structure (SMILES)	inhibition [1]	IC50 [2] [µM]
CC[C@@H](C)[C@H](NC(=O)[C@@H](NC(=O)[C@H](CSC(=O)OCc1ccccc1)NC(=O)OCc1ccccc1)C(C)C)C(=O)N[C@@H](CCSC)C(=O)OC	inactive	90
CSCC[C@H](NC(=O)c1cccc(CNC(=O)[C@@H](N)CS)c1)C(=O)O	inactive	0.38
COC(=O)[C@H](CCSC)NC(=O)c1cccc(CNC(=O)[C@H](CSC(=O)OCc2ccccc2)NC(=O)OCc2ccccc2)c1		100
CC[C@H](C)[C@H](NC(=O)[C@@H](NC(=O)[C@@H](N)CS)C(C)C)C(=O)N[C@@H](CCSC)C(=O)O		0.34
COC(=O)[C@H](CCSC)NC(=O)c1cccc(CNC(=O)[C@H](CS)NC(C)=O)c1	inactive	100
COC(=O)[C@H](CCSC)NC(=O)c1cccc(CNC(=O)[C@@H](N)CS)c1		18
CSCC[C@H](NC(=O)c1cccc(CNC(=O)[C@H](CS)NC(=O)OCc2ccccc2)c1)C(=O)O	inactive	14
